pEC50, pIC50: −log10 of the molar value. Structures can show the parent of a compound that is named as a salt.
Legend:
[1] = biological target: T1, serotonin 5-HT1A receptor (Rattus norvegicus, UniProt P19327); experiment: Displacement of [3H]-8-OH-DPAT from 5-HT1A receptor in rat hippocampal membrane homogenates; type: binding; settings: [3H]-8-OH-DPAT displacement, read-out: 5-HT1A Affinity (IC50)
T1 construct: in rat hippocampal membrane homogenates; from tissue; host or cells: rat hippocampus (membrane homogenates)
T1 sequence (P19327 1-422): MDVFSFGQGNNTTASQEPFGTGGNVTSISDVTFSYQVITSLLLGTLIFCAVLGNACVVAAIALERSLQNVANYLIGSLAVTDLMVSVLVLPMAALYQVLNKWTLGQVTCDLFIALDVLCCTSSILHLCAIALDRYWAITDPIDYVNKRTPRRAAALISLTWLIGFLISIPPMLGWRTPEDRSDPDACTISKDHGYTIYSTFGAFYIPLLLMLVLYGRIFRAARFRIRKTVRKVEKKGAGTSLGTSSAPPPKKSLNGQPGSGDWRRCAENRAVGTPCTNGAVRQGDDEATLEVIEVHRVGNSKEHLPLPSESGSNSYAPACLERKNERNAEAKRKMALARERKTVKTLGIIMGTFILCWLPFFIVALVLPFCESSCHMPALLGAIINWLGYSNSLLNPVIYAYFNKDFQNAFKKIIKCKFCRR
Description: Affinity for the serotonin 5-HT1A receptor was established by assaying the test compound's ability to displace [^3H]-8-OH-DPAT from its binding site on the receptor complex in rat hippocampal membrane homogenates according to the method described in U.S. Pat. No. 5,482,940.

[2] = biological target: T2, human 5-HT1A receptor (Homo sapiens, UniProt P08908); experiment: Block of 8-OH-DPAT-induced stimulation of [35S]-GTPγS binding (5-HT1A antagonist activity) in CHO cells stably transfected with human 5-HT1A receptor; type: biochemical; settings: block of 8-OH-DPAT-induced [35S]-GTPγS binding
T2 construct: expressed in transfected cells; host or cells: CHO cells, stably transfected
T2 sequence (P08908 1-422): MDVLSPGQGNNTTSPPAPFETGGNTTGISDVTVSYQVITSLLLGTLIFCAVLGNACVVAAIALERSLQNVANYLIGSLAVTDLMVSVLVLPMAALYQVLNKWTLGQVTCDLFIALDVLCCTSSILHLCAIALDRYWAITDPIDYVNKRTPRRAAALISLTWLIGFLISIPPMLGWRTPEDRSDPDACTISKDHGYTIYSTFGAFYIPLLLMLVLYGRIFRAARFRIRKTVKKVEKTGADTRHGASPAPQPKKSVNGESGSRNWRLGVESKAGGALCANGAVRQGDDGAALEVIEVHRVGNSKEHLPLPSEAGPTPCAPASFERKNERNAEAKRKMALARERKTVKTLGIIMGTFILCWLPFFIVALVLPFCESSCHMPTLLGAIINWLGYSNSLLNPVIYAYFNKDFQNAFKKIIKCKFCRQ

[3] = biological target: T2, human 5-HT1A receptor; experiment: Stimulation of [35S]-GTPγS binding (5-HT1A agonist activity) in CHO cells stably transfected with human 5-HT1A receptor; type: biochemical; settings: for 5-HT1A Agonist Activity (GTPγS) % Agonist Activity: relative to the effect of the 5-HT1A full agonist 8-OH-DPAT
Description: Data are presented as the percent of
agonist activity observed relative to the effect obtained with the 5-HT1A full agonist 8-OH-DPAT and the corresponding EC50 value.

Structure (SMILES) | melting point [°C] | pIC50 [1] | pEC50 [3] | 5-HT1A Agonist Activity (GTPγS) % Agonist Activity [3] [%] | further results
O=C(N[C@H](Cc1ccccc1)CN1CCN(Cc2ccccc2)CC1)C12CC3CC(CC(C3)C1)C2 (as salt: hydrochloride) (hydrate or solvate) [Example 1, (R)-N-[1-(Phenylmethyl)-2-[4-(phenylmethyl)-1-piperazinyl]ethyl]tricyclo[3.3.1.1^3,7)]-decane-1-carboxamide Dihydrochloride Dihydrate] | 261 to 263 | – | – | – | –
O=C(N[C@@H](Cc1ccccc1)CN1CCN(Cc2ccccc2)CC1)C12CC3CC(CC(C3)C1)C2 (as salt: hydrochloride) (hydrate or solvate) [Example 2, (S)-N-[1-(Phenylmethyl)-2-[4-(phenylmethyl)-1-piperazinyl]ethyl]tricyclo[3.3.1.1^3,7)]-decane-1-carboxamide Dihydrochloride Dihydrate] | 263 to 266 | – | – | – | –
O=C(N[C@H](Cc1ccccc1)CN1CCN(c2ncccn2)CC1)C12CC3CC(CC(C3)C1)C2 (hydrate or solvate) [Example 3, (R)-N-[1-(Phenylmethyl)-2-[4-(2-pyrimidinyl)-1-piperazinyl]ethyl]tricyclo[3.3.1.1^3,7)]-decane-1-carboxamide Hemihydrate] | 172 to 175 | – | – | – | –
O=C(N[C@H](Cc1ccccc1)CN1CCN(Cc2ccccc2)CC1)C12CC3CC(CC(C3)C1)C2 [Example 1, (R)-N-[1-(Phenylmethyl)-2-[4-(phenylmethyl)-1-piperazinyl]ethyl]tricyclo[3.3.1.1^3,7)]-decane-1-carboxamide Dihydrochloride Dihydrate] | – | 8.64 | – | – | 5-HT1A Antagonist Activity (GTPγS) % Antagonist Activity [2]: 100%; pEC50 [2]: 7.44
O=C(N[C@@H](Cc1ccccc1)CN1CCN(Cc2ccccc2)CC1)C12CC3CC(CC(C3)C1)C2 [Example 2, (S)-N-[1-(Phenylmethyl)-2-[4-(phenylmethyl)-1-piperazinyl]ethyl]tricyclo[3.3.1.1^3,7)]-decane-1-carboxamide Dihydrochloride Dihydrate] | – | 9.15 | 7.68 | 51 | –
O=C(N[C@H](Cc1ccccc1)CN1CCN(c2ncccn2)CC1)C12CC3CC(CC(C3)C1)C2 [Example 3, (R)-N-[1-(Phenylmethyl)-2-[4-(2-pyrimidinyl)-1-piperazinyl]ethyl]tricyclo[3.3.1.1^3,7)]-decane-1-carboxamide Hemihydrate] | – | 9.37 | 8.70 | 100 | –
O=C(N[C@@H](Cc1ccccc1)CN1CCN(c2ncccn2)CC1)C12CC3CC(CC(C3)C1)C2 [Example 4] | 172 to 175 | 9.00 | 8.62 | 99 | –
Cl.Cl.O.O.O=C(N[C@@H](COCc1ccccc1)CN1CCN(Cc2ccccc2)CC1)C12CC3CC(CC(C3)C1)C2 [Example 5, (R)-N-[1-((Phenylmethoxy)methyl)-2-[4-(phenylmethyl)-1-piperazinyl]ethyl]tricyclo-[3.3.1.1^3,7)]-decane-1-carboxamide Dihydrochloride Dihydrate] | – | 7.21 | 7.11 | – | –
Cl.Cl.O.O.O=C(N[C@@H](COCc1ccccc1)CN1CCN(Cc2ccccc2)CC1)C12CC3CC(CC(C3)C1)C2 [Example 5] | – | – | – | 49 | –
COc1ccccc1N1CCN(C[C@@H](Cc2ccccc2)NC(=O)C23CC4CC(CC(C4)C2)C3)CC1.COc1ccccc1N1CCN(C[C@@H](Cc2ccccc2)NC(=O)C23CC4CC(CC(C4)C2)C3)CC1.O.O=C(O)/C=C/C(=O)O [Example 6, (R)-Adamantane-1-carboxylic acid [1-(phenylmethyl)-2-[4-(2-methoxyphenyl)-piperazinyl]ethyl]-amide Hemifumarate Hemihydrate] | – | 9.68 | – | 76 | –
COc1ccccc1N1CCN(C[C@H](Cc2ccccc2)NC(=O)C23CC4CC(CC(C4)C2)C3)CC1.COc1ccccc1N1CCN(C[C@H](Cc2ccccc2)NC(=O)C23CC4CC(CC(C4)C2)C3)CC1.O.O.O=C(O)/C=C/C(=O)O [Example 7, (S)-Adamantane-1-carboxylic acid [1-(phenylmethyl)-2-[4-(2-methoxyphenyl)-piperazinyl]ethyl]-amide Hemifumarate Hydrate] | – | 9.15 | – | 85 | –

Source: US6831084B1, “Branched adamantyl and noradamantyl aryl- and aralkylpiperazines with serotonin 5-HT1A activity” (Wyeth, priority 1999, dated 2004)
